Patent publication US11963966B2, “Compositions and methods for treating ovarian tumors” (Dana-Farber Cancer Institute, Inc., priority 2017, dated 2024)
Entries after “also recorded” stand apart in the source; their conditions may differ. Where two headings read alike, the source gives them in different places.

What was measured:
[1] = tested on: spheroids of ovarian cancer cell lines OVCAR8 and TKYNU; assay: Mesothelial clearance (invasion through mesothelial monolayer); format: cell-based; settings: treatment 30 minutes followed by drug removal
Protocol: (§1) FIG. 6A-FIG. 6G are a series of graphs and images depicting the impact of JAK/STAT-inhibition on spheroid formation, invasion and killing ex vivo and in vitro. FIG. 6A a histogram (FIG. 11B), showing drug screening with 14 compounds (at 1 μM) inhibiting the JAK/STAT pathway in OVACR4. Relative viability compared to DMSO control measured by CTG. […] The same library was screened in 2D-cultures of OVACR4 (FIG. 11A), and 2D-cultures of OVACR8 (FIG. 11C) and 3D-cultures of OVACR8 (FIG. 11D). FIG. 6B is a series of plots showing drug sensitivity testing using the GILA assay in platinum-resistant ex vivo spheroid cultures of patients DF3291 and DF3266, The X-axis indicates the log μM concentration of drugs indicated in the legend, Y-axis indicates the percentage of luminescence signal as indicator for viability relatively to DMSO treated cells. In both patients, half maximal effective concentration (EC50) were ˜100 nM and ˜10 nM, respectively, while other drugs routinely used for the treatment of (platinum-resistant) ovarian cancer had EC50>10 μM. FIG. 6C is a series of images of microscopic analysis of spheroids with different drug treatments to highlight the morphologic changes during therapy with drugs listed. Inhibition of JAK/STAT pathway disrupts ex vivo spheroid cultures. […] 20 spheroids clusters were analyzed for each iteration. […]

[2] = tested on: patient ascites-derived spheroids; assay: as above; format: cell-based; settings: pre-treatment 30 or 120 minutes followed by drug removal
Protocol: as §1

[3] = tested on: platinum-resistant ex vivo spheroid cultures of patients DF3266, DF3288, DF3291; assay: Drug sensitivity testing with the growth in low attachment (GILA) assay; format: cell-based
Protocol: (§2) FIG. 6A-FIG. 6G are a series of graphs and images depicting the impact of JAK/STAT-inhibition on spheroid formation, invasion and killing ex vivo and in vitro. FIG. 6A a histogram (FIG. 11B), showing drug screening with 14 compounds (at 1 μM) inhibiting the JAK/STAT pathway in OVACR4. Relative viability compared to DMSO control measured by CTG. […] The same library was screened in 2D-cultures of OVACR4 (FIG. 11A), and 2D-cultures of OVACR8 (FIG. 11C) and 3D-cultures of OVACR8 (FIG. 11D). FIG. 6B is a series of plots showing drug sensitivity testing using the GILA assay in platinum-resistant ex vivo spheroid cultures of patients DF3291 and DF3266, The X-axis indicates the log μM concentration of drugs indicated in the legend, Y-axis indicates the percentage of luminescence signal as indicator for viability relatively to DMSO treated cells. In both patients, half maximal effective concentration (EC50) were ˜100 nM and ˜10 nM, respectively, while other drugs routinely used for the treatment of (platinum-resistant) ovarian cancer had EC50>10 μM. FIG. 6C is a series of images of microscopic analysis of spheroids with different drug treatments to highlight the morphologic changes during therapy with drugs listed. Inhibition of JAK/STAT pathway disrupts ex vivo spheroid cultures. […] The X-axis indicates established ovarian cancer cell line ID. Y-axis indicates the relative number of formed spheroids when treated with either JSI-124 or carboplatin compared to untreated parental controls. Error bars indicate the standard deviation from the mean number of spheroids. […] JAK/STAT inhibition prevents spheroid formation. […] The Y-axis indicates the clearance ability (using arbitrary units). 20 spheroids clusters were analyzed for each iteration. Data is shown as mean (horizontal bar), interquartile range (box), and minimum and maximum (whiskers). Statistical analysis was performed using 1-way analysis of variance (ANOVA) and post hoc Tukey-Kramer **P<0.05. […] FIG. 6G is a histogram showing the inhibition of the JAK/STAT pathway.
Single-cell RNA-sequencing was performed on these platinum-resistant patient samples, using the growth in low attachment (GILA) assay (Rotem et al., 2015 Proc. Natl. Acad. Sci. U.S.A, 112:5708-5713; B. Izar and A. Rotem, 2016 Curr. Protoc. Mol. Biol., 116:28.8.1-28.8.12). […] In contrast, all spheroid cultures were resistant to carboplatin, cisplatin, olaparib and paclitaxel at a similar dose range, with the exception of cisplatin with an EC50 of ˜10 μM in patients DF3266 and DF3288.

[4] = tested on: PDX model DF20 malignant ascites; assay: PDX model DF20, IP injected cancer cells (malignant ascites), IP JSI-124 vs vehicle, BLI; format: in vivo, mice
Protocol: FIG. 7A-FIG. 7E are a series of graphs and images that depict the impact of JAK/STAT-inhibition on spheroid formation in vivo and anti-tumor activity. […] Each of these were performed following intraperitoneal (IP) or subcutaneous (SC) injection of cancer cells followed by IP therapy with JSI-124 vs. vehicle. Each group includes 5 mice. The inverted triangle indicates the time=0 of cancer cell injection. […] Mice were injected IP with tumor cells and one week later started treatment for a total 14 days. Each group includes 5 mice. Y-axis indicates log of bioluminescence imaging (BLI) signal (log total flux in p/s). Values are given as mean of log BLI signal, error bars indicate standard deviation from the mean. ***p<0.0001 (two-sided t test comparing mean±STDEV at Day 15 of treatment). […] Each group includes 5 mice. Y-axis indicates log BLI signal (log total flux in p/s). Values are given as mean of log BLI signal, error bars indicate standard deviation from the mean. ***p<0.0001 (two-sided t test comparing mean±STDEV at Day 15 of treatment). […] Mice were injected SC with tumor cells and one week later started treatment for a total 14 days. Each group includes 5 mice. Y-axis indicates log BLI signal (log total flux in p/s). Values are given as mean of log BLI signal, error bars indicate standard deviation from the mean. ***p<0.0001 (two-sided t test comparing mean±STDEV at Day 15 of treatment). […] Each group includes 5 mice. Y-axis indicates log BLI signal (log total flux in p/s). Values are given as mean of log BLI signal, error bars indicate standard deviation from the mean. ***p<0.0001 (two-sided t test comparing mean±STDEV at Day 15 of treatment).

[5] = tested on: established ovarian cancer cell lines (OVCAR4, OVCAR8, OVASHO, TYKNU, Kuramachi); assay: Spheroid formation in low adherent surface culture; format: cell-based
Protocol: as §2, with “pathway. […]” for “pathway.”

[6] = tested on: ex vivo patient-derived ovarian cancer spheroids; assay: Microscopic analysis of patient-derived spheroids/cells after drug treatment; format: cell-based
Protocol: as §1

[7] = Adverse effects in JSI-124 treated PDX mice; format: in vivo; settings: IP JSI-124 treated PDX mice
From the text: A frequently used treatment modality for advanced ovarian cancer is the intraperitoneal administration of chemotherapy, such as cisplatin, which has local effects, but is also systemically reabsorbed to treat potential metastatic disease. […] Tumor growth was compared following IP JSI-124 treatment v. vehicle.

[8] = ascites allowed to form 3 weeks, then IP treatment 14 days
[9] = tumor cells IP, 7 days growth, then 14 days IP therapy

CC(C)(O)/C=C/C(=O)[C@](C)(O)[C@H]1[C@@H](O)C[C@@]2(C)[C@@H]3CC=C4[C@H](C=C(O)C(=O)C4(C)C)[C@]3(C)C(=O)C[C@]12C [JSI-124, cucurbitacin I]
Ability to invade the mesothelium [1]: abolished their ability to invade the mesothelium; also recorded: unable to invade through the mesothelial monolayer | Ability to invade (clear) the mesothelial monolayer [2]: significantly reduced ability to invade the mesothelial monolayer; also recorded: unable to invade through the mesothelial monolayer | Emax ([3]; Homo sapiens): ≤ 99% | EC50 ([3]; Homo sapiens, read-out: EC50 (viability, luminescence relative to DMSO), patient DF3266): ~10 nM | EC50 ([3]; Homo sapiens, read-out: EC50 (viability, luminescence relative to DMSO), patient DF3291): ~100 nM | EC50 values, single-agent cytotoxic activity ([3]; all tested models (DF3266, DF3288, DF3291)): nanomolar ranges | BLI signal of established malignant ascites [4, 8]: significant reduction in BLI signal of malignant ascites | mean day 15 log BLI signal±standard deviation [4, 8]: 1.29×10^9±6×10^8 p/s | Development of malignant ascites [4, 9]: completely abrogated development of malignant ascites | mean day 15 log BLI signal±standard deviation [4, 9]: 1.47×10^8±6.5×10^7 p/s | Number of spheroids vs DMSO control ([5]; Kuramachi): significantly reduced the number of spheroids | Formation of spheroids vs DMSO control ([5]; OVCAR4, OVCAR8, OVASHO, TYKNU): completely abrogated the formation of spheroids | Morphology of ex-vivo patient-derived ovarian cells after treatment ([6]; FIG. 36): massive elimination of tumor cells | Spheroid morphology / integrity ([6]; platinum-resistant ex vivo spheroids): disintegration of the solid 3D spheroid structure | Adverse effect (body weight, ascites/edema) [7]: increased weight due to increased non-malignant ascites
